Results: ChEMBL document CHEMBL1641539 (Bioorg Med Chem Lett, 2011)

Key:
[1] = target: Epidermal growth factor receptor (Homo sapiens) (UniProt P00533); assay: Inhibition of human EGFR at 10 uM after 60 mins by TR-FRET assay; conditions: values are per cent of control
[2] = system: Epidermal growth factor receptor (Homo sapiens), P00533 [T790M]; assay: Inhibition of human EGFR T790M mutant at 10 uM after 60 mins by TR-FRET assay; type: protein assay; conditions: values are per cent of control
[3] = target: Mitogen-activated protein kinase 8 (Homo sapiens, UniProt P45983); assay: Inhibition of human JNK1alpha1 at 10 uM after 60 mins by TR-FRET assay; conditions: values are per cent of control
[4] = target: Serine/threonine-protein kinase 10 (Homo sapiens) (UniProt O94804); assay: Inhibition of human LOK at 10 uM after 60 mins by TR-FRET assay; conditions: values are per cent of control
[5] = target: T1, Serine/threonine-protein kinase 3 (Homo sapiens) (UniProt Q13188); assay: Inhibition of human MST2 at 10 uM after 60 mins by TR-FRET assay; conditions: values are per cent of control
T1 sequence (whole entry): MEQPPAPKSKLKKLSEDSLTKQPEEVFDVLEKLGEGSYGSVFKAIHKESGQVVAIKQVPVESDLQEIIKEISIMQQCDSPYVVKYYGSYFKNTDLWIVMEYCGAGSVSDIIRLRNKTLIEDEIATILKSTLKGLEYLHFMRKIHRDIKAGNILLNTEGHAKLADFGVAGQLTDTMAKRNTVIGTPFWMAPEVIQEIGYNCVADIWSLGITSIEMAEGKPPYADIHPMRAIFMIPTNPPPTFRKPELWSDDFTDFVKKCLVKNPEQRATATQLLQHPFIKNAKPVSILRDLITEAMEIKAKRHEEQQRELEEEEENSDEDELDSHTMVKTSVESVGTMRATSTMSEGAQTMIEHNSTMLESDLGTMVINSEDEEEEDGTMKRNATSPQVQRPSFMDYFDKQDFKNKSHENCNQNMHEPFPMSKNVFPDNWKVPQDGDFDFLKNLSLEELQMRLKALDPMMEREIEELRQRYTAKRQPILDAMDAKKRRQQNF

[6] = target: Tyrosine-protein kinase receptor TYRO3 (Homo sapiens) (UniProt Q06418); assay: Inhibition of human Rse at 10 uM after 60 mins by TR-FRET assay; conditions: values are per cent of control
[7] = target: Serine/threonine-protein kinase ULK3 (Homo sapiens) (UniProt Q6PHR2); assay: Inhibition of human ULK3 at 10 uM after 60 mins by TR-FRET assay; conditions: values are per cent of control
[8] = target: Ribosomal protein S6 kinase alpha-6 (Homo sapiens) (UniProt Q9UK32); assay: Inhibition of human Rsk4 at 10 uM after 60 mins by TR-FRET assay; conditions: values are per cent of control
[9] = target: Ribosomal protein S6 kinase alpha-1 (Rattus norvegicus) (UniProt Q63531); assay: Inhibition of rat Rsk1 at 10 uM after 60 mins by TR-FRET assay; values are per cent of control
[10] = target: Tyrosine-protein kinase Fes/Fps (Homo sapiens) (UniProt P07332); assay: Inhibition of human Fes at 10 uM after 60 mins by TR-FRET assay; values are per cent of control
[11] = target: Macrophage colony-stimulating factor 1 receptor (Homo sapiens) (UniProt P07333); assay: Inhibition of human Fms at 10 uM after 60 mins by TR-FRET assay; values are per cent of control
[12] = target: Tyrosine-protein kinase HCK (Homo sapiens) (UniProt P08631); assay: Inhibition of human Hck at 10 uM after 60 mins by TR-FRET assay; values are per cent of control
[13] = target: Tyrosine-protein kinase receptor UFO (Homo sapiens) (UniProt P30530); assay: Inhibition of human Axl at 10 uM after 60 mins by TR-FRET assay; values are per cent of control
[14] = target: Rhodopsin kinase GRK7 (Homo sapiens) (UniProt Q8WTQ7); assay: Inhibition of human GRK7 at 10 uM after 60 mins by TR-FRET assay; values are per cent of control
[15] = target: MAP kinase-interacting serine/threonine-protein kinase 2 (Homo sapiens) (UniProt Q9HBH9); assay: Inhibition of human Mnk2 at 10 uM after 60 mins by TR-FRET assay; values are per cent of control
[16] = target: Angiopoietin-1 receptor (Homo sapiens) (UniProt Q02763); assay: Inhibition of human Tie2 at 10 uM after 60 mins by TR-FRET assay; values are per cent of control
[17] = target: NUAK family SNF1-like kinase 1 (Homo sapiens) (UniProt O60285); assay: Inhibition of human ARK5 at 10 uM after 60 mins by TR-FRET assay; values are per cent of control
[18] = target: Ephrin type-A receptor 7 (Homo sapiens) (UniProt Q15375); assay: Inhibition of human EphA7 at 10 uM after 60 mins by TR-FRET assay; values are per cent of control
[19] = target: Ephrin type-A receptor 8 (Homo sapiens) (UniProt P29322); assay: Inhibition of human EphA8 at 10 uM after 60 mins by TR-FRET assay; values are per cent of control
[20] = target: Testis-specific serine/threonine-protein kinase 1 (Homo sapiens) (UniProt Q9BXA7); assay: Inhibition of human TSSK1 at 10 uM after 60 mins by TR-FRET assay; values are per cent of control
[21] = target: Protein kinase C beta type (Homo sapiens) (UniProt P05771); assay: Inhibition of human PKCbeta2 at 10 uM after 60 mins by TR-FRET assay; values are per cent of control
[22] = target: Glycogen synthase kinase-3 beta (Homo sapiens) (UniProt P49841); assay: Inhibition of human GSK3-beta at 10 uM after 60 mins by TR-FRET assay; values are per cent of control
[23] = target: MAP kinase-activated protein kinase 3 (Homo sapiens) (UniProt Q16644); assay: Inhibition of human MAPKAP-K3 at 10 uM after 60 mins by TR-FRET assay; values are per cent of control
[24] = target: Calcium/calmodulin-dependent protein kinase type II subunit delta (Homo sapiens) (UniProt Q13557); assay: Inhibition of human CaMK2delta at 10 uM after 60 mins by TR-FRET assay; values are per cent of control
[25] = system: Tyrosine-protein kinase ABL1 (Homo sapiens), P00519 [Y253F]; assay: Inhibition of human Abl Y253F mutant at 10 uM after 60 mins by TR-FRET assay; values are per cent of control

Sequence of Tyrosine-protein kinase receptor TYRO3 (Homo sapiens) (Q06418 whole entry): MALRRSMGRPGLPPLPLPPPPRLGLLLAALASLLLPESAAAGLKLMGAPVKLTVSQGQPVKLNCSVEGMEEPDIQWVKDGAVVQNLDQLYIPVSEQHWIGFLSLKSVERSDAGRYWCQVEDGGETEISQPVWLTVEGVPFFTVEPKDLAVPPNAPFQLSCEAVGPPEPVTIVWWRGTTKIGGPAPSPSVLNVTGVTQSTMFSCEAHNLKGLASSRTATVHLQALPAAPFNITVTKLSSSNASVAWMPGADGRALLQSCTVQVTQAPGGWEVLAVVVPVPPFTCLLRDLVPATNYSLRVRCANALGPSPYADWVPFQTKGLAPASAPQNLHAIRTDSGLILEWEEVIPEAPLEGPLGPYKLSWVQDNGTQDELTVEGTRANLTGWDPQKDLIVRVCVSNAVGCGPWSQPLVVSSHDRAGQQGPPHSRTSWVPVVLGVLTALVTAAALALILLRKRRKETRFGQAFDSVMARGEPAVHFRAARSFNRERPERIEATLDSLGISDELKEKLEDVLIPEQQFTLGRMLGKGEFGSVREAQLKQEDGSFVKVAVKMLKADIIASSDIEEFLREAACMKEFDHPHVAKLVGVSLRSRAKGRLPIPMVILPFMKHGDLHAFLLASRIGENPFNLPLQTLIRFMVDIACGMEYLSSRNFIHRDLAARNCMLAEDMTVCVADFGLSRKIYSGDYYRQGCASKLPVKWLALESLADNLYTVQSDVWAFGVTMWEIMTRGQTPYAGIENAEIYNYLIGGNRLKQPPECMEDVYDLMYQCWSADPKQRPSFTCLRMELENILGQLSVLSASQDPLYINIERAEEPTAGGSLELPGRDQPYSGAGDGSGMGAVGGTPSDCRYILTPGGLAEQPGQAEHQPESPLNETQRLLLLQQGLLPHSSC
Sequence of Macrophage colony-stimulating factor 1 receptor (Homo sapiens) (P07333 whole entry): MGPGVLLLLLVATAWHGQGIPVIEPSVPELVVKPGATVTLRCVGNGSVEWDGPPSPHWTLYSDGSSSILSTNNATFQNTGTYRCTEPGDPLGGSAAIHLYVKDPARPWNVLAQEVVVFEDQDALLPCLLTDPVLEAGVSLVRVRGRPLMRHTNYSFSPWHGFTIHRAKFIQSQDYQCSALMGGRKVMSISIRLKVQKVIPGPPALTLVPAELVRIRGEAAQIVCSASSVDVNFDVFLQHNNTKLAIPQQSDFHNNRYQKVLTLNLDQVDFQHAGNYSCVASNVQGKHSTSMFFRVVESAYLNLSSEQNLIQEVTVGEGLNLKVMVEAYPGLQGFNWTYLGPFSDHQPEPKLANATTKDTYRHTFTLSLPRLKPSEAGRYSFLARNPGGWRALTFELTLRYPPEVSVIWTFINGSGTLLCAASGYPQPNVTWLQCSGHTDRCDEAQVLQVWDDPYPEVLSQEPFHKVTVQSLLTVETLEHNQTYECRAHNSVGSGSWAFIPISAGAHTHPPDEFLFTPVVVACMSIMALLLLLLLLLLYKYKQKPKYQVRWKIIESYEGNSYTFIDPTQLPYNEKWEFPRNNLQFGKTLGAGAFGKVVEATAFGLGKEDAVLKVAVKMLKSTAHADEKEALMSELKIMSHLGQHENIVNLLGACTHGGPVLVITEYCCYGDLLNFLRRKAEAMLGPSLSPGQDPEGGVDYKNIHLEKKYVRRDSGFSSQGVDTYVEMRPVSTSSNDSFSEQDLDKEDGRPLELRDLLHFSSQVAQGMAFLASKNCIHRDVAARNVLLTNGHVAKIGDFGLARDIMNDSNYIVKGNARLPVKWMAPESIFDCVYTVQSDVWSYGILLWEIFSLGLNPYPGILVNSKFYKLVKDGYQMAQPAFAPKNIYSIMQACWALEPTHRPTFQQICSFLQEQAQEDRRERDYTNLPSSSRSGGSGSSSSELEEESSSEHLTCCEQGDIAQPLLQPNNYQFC
Sequence of Ribosomal protein S6 kinase alpha-1 (Rattus norvegicus) (Q63531 whole entry): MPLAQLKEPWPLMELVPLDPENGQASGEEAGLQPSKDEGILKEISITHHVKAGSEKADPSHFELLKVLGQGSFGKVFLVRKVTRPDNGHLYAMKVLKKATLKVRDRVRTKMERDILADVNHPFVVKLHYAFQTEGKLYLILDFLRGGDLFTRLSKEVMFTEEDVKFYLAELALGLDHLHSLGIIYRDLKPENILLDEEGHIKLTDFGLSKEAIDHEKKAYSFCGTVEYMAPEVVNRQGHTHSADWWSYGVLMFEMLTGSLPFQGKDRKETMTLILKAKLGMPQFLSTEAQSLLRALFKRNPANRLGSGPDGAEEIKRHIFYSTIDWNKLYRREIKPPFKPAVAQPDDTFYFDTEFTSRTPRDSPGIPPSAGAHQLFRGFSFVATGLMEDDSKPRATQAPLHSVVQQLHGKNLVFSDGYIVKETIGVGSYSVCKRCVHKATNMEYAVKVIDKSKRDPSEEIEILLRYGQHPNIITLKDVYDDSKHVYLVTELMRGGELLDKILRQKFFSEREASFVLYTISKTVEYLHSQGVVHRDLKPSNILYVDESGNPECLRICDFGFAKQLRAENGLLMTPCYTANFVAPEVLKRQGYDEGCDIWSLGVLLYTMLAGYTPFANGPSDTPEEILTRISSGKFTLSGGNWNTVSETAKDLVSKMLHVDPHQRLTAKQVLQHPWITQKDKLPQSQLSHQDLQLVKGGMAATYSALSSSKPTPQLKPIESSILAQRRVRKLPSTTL
Sequence of Glycogen synthase kinase-3 beta (Homo sapiens) (P49841 whole entry, looked up): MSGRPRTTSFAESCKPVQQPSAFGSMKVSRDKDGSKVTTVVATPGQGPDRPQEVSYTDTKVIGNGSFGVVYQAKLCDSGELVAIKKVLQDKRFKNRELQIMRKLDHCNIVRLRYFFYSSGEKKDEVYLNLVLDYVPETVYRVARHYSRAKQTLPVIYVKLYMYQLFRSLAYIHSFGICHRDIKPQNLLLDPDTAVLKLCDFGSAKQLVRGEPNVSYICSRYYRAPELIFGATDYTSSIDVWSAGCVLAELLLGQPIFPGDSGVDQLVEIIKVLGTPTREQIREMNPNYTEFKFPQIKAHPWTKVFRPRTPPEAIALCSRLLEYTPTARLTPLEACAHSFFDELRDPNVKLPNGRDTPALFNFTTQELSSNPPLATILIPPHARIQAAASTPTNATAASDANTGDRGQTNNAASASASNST
Sequence of Epidermal growth factor receptor (Homo sapiens) (P00533 whole entry): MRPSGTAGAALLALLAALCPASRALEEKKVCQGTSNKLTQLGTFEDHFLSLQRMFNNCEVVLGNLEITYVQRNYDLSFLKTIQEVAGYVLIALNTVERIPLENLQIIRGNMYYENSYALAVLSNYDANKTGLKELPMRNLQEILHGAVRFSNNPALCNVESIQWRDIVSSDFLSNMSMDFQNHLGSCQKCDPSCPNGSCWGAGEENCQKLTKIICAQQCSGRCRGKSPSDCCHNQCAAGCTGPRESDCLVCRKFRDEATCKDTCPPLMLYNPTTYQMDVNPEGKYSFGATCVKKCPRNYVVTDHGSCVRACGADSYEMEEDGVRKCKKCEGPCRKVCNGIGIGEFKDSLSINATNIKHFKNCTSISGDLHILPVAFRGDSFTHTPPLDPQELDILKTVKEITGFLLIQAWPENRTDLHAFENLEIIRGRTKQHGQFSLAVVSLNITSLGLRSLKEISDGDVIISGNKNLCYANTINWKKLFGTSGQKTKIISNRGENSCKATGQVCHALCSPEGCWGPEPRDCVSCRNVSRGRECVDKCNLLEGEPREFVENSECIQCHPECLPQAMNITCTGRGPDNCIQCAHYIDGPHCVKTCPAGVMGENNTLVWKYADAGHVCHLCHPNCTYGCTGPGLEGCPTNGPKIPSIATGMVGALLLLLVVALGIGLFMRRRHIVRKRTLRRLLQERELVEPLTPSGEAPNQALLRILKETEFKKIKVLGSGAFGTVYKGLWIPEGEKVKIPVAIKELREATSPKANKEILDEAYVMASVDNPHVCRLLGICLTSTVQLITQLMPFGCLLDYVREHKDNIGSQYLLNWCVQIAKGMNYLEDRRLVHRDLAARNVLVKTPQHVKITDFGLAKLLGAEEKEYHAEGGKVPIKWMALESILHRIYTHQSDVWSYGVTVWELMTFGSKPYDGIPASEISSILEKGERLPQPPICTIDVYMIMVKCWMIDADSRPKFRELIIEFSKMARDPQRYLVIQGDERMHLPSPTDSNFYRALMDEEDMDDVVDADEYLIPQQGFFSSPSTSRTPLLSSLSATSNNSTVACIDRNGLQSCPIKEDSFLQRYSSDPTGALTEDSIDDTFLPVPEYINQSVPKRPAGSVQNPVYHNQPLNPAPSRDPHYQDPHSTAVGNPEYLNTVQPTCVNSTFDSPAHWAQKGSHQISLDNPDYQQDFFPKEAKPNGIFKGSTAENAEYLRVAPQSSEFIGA
Sequence of Rhodopsin kinase GRK7 (Homo sapiens) (Q8WTQ7 whole entry): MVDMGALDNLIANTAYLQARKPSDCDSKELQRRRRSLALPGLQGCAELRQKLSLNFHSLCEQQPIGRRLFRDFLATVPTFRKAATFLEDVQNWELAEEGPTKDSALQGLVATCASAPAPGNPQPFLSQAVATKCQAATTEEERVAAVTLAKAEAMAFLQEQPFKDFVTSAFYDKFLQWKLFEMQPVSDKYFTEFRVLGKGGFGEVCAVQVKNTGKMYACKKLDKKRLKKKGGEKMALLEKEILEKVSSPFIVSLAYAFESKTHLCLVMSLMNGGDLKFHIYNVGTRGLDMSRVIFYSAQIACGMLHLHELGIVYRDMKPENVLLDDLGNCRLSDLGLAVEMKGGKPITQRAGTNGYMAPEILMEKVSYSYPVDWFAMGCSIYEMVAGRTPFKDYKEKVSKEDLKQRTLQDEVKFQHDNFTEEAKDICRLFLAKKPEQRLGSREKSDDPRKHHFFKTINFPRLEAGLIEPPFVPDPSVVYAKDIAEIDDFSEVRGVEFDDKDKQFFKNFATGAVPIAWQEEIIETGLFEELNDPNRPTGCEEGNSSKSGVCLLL

residual activity [1]: 90%
residual activity [2]: 98%
residual activity [3]: 110%
residual activity [4]: 89%
residual activity [5]: 103%
residual activity [6]: 116%
residual activity [7]: 107%
residual activity [8]: 109%
residual activity [9]: 103%
residual activity [10]: 97%
residual activity [11]: 96%
residual activity [12]: 112%
residual activity [13]: 110%
residual activity [14]: 124%
residual activity [15]: 112%
residual activity [16]: 103%
residual activity [17]: 103%
residual activity [18]: 65%
residual activity [19]: 99%
residual activity [20]: 111%
residual activity [21]: 105%
residual activity [22]: 90%
residual activity [23]: 112%
residual activity [24]: 106%
residual activity [25]: 105%
SMILES: S=c1[nH]nc(-c2ccncc2)n1-c1ccc2ccccc2c1
